The target of one assay is T1, K-Ras G12D (Homo sapiens, UniProt P01116, G12D).
T1 construct: made in house; host or cells: E. coli BL21 (DE3)
Nature of the assay: HTRF resonance energy transfer assay, K-Ras G12D / SOS1 interaction. The class given is biochemical. The note with it: HTRF assay of Example 5; read-out: IC50 against K-Ras G12D. The procedure, abridged: (§1)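 Buffer about 5 mM HEPES pH 7.4 with ~150 mM NaCl, ~1 mM DTT, 0.05% BSA, 0.0025% (v/v) Igepal. Protein constructs used at molarity matching the IC50 range studied (e.g. ~500 nM). FRET between tagged K-Ras and hSOS1 measured after short incubation.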
For orientation: TR-FRET usually uses a lanthanide donor and a delayed reading to cut background.

The target in another assay is T2, K-Ras G12S (Homo sapiens, UniProt P01116, G12S).
T2 construct: made in house; host or cells: E. coli BL21 (DE3)
T2 sequence (P01116 1-188 isoform P01116-2 G12S): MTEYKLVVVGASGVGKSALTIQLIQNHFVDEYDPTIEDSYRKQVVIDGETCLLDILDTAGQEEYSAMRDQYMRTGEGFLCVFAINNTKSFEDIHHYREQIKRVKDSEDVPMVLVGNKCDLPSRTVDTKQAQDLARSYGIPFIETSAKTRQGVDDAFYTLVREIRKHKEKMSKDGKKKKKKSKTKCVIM
Nature of the assay: HTRF resonance energy transfer assay, K-Ras G12S / SOS1 interaction. The class given is biochemical. Conditions: HTRF assay of Example 5; read-out: IC50 against K-Ras G12S. The procedure, abridged: as §1

In the next assay the target is T3, K-Ras G12V (Homo sapiens, UniProt P01116, G12V).
T3 construct: made in house; host or cells: E. coli BL21 (DE3)
T3 sequence (P01116 1-188 isoform P01116-2 G12V): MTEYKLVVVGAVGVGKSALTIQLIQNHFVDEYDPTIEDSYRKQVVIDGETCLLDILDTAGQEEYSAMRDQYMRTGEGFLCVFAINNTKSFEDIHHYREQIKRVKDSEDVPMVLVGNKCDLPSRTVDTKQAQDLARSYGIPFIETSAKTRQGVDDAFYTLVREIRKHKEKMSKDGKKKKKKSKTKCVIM
Nature of the assay: HTRF resonance energy transfer assay, K-Ras G12V / SOS1 interaction. The class given is biochemical. Conditions: HTRF assay of Example 5; read-out: IC50 against K-Ras G12V. The method, boiled down: as §1

A further assay addresses T4, K-Ras WT (Homo sapiens, UniProt P01116).
T4 construct: made in house; host or cells: E. coli BL21 (DE3)
Nature of the assay: HTRF resonance energy transfer assay, K-Ras WT / SOS1 interaction. It is filed as biochemical. The note with it: HTRF assay of Example 5; read-out: IC50 against K-Ras WT. The procedure, abridged:
as §1

The next assay deals with GP2D cells. Nature of the assay: Ras cellular assay, growth of cells with K-Ras G12D mutation (CellTiter-Glo). The class given is cell-based. The note with it: cell growth, Example 9, G12D mutation, read-out: IC50 against GP2D cells.
A further assay relates to A549 cells. Nature of the assay: Ras cellular assay, growth of cells with K-Ras G12S mutation (CellTiter-Glo). The note with it: Homo sapiens, cell growth, Example 9, G12S mutation, read-out: IC50 against A549 cells. The class given is cell-based. The procedure, abridged: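 Growth inhibition IC50 values come from four-parameter fits of CellTiter-Glo luminescence, read about 6 days after compound addition. G12S-mutant A549 cells (e.g. 800/well, RPMI-1640 + 10% heat-inactivated FBS) were plated in tissue-culture-treated or ultra-low-attachment 384-well format. Dosing began the following day with serial dilutions, e.g. 10 points, 3-fold.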
In general terms: Cellular ATP, detected with luciferase, serves as a proxy for viable cell number.

The subject of the next assay is SW620 cells. Nature of the assay: Ras cellular assay, growth of cells with K-Ras G12V mutation (CellTiter-Glo). The class given is cell-based. Conditions: Homo sapiens, SW-620; cell growth, Example 9, G12V mutation; read-out: IC50 against SW620 cells. The procedure, abridged:
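IC50 values came from a four-parameter fit of CellTiter-Glo viability, read roughly 6 days after dosing with e.g. a 10-point threefold dilution series. G12V-mutant SW620 cells (e.g. 800 per well) had been plated the previous day in RPMI-1640/10% heat-inactivated FBS, on tissue culture-treated or ultra-low attachment plates.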

The structures appear in SMILES notation.

T1 sequence (P01116 1-188 isoform P01116-2 G12D): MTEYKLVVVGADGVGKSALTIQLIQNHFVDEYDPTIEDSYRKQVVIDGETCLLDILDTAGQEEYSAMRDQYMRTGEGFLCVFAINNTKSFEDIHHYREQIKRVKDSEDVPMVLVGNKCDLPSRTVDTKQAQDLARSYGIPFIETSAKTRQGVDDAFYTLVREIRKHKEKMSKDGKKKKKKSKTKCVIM
T4 sequence (P01116 1-188 isoform P01116-2): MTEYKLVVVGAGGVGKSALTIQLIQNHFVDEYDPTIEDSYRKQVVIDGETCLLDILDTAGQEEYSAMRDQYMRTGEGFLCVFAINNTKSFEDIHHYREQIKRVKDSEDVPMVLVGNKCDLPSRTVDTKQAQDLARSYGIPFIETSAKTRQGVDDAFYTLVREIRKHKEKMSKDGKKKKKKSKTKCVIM

In the case of `C[C@@H](O)[C@H]1COc2c(Cl)c(-c3ccc(F)c4sc(N)c(C#N)c34)c(F)c3nc(OC[C@@]45CCCN4C[C@H](F)C5)nc(c23)N1CCC(F)F` (single isomer, unassigned) [Compound 820], the IC50 at K-Ras G12D was below 100 nM; at K-Ras G12S, below 100 nM; on K-Ras G12V it was below 100 nM; on K-Ras WT it was below 100 nM; with GP2D cells, below 500 nM; in the assay on A549 cells, below 5000 nM. Also, the IC50 in the assay on SW620 cells is below 5000 nM.

On to `C=C[C@H]1COc2c(Cl)c(-c3ccc(F)c4sc(N)c(C#N)c34)c(F)c3nc(OC[C@@]45CCCN4C[C@H](F)C5)nc(c23)N1CC(F)F` (single isomer, unassigned) [Compound 890], for which the IC50 is below 100 nM at K-Ras G12D; below 100 nM on K-Ras G12S; below 100 nM on K-Ras G12V; below 100 nM at K-Ras WT; below 500 nM in the assay on GP2D cells; below 5000 nM with A549 cells. Further, the IC50 with SW620 cells is below 5000 nM.

As for `CC(O)C1COc2c(Cl)c(-c3ccc(F)c4sc(N)c(C#N)c34)c(F)c3nc(OC[C@@]45CCCN4C[C@H](F)C5)nc(c23)N1CC(F)F` (single isomer, unassigned) [Compound 899], the IC50 was below 100 nM on K-Ras G12D; below 100 nM on K-Ras G12S; below 100 nM on K-Ras G12V; below 100 nM on K-Ras WT; below 500 nM in the assay with GP2D cells; below 5000 nM with A549 cells. Besides, the IC50 with SW620 cells is below 5000 nM.

For `N#Cc1c(N)sc2c(F)ccc(-c3c(Cl)c4c5c(nc(OC[C@@]67CCCN6C[C@H](F)C7)nc5c3F)N(CC(F)F)C(CCO)CO4)c12` (single isomer, unassigned) [Compound 1049], the IC50 at K-Ras G12D was below 100 nM; on K-Ras G12S, below 100 nM; at K-Ras G12V, below 100 nM; on K-Ras WT, below 100 nM; in the assay on GP2D cells it was below 500 nM; with A549 cells, below 5000 nM. Moreover, the 50% inhibitory concentration (IC50) in the assay on SW620 cells was below 5000 nM.

On to `N#Cc1c(N)sc2c(F)ccc(-c3c(Cl)c4c5c(nc(OC[C@@]67CCCN6C[C@H](F)C7)nc5c3F)N(CC(F)F)CCC(CO)O4)c12` (single isomer, unassigned) [Compound 1207], for which the IC50 at K-Ras G12D was below 100 nM; at K-Ras G12S, below 100 nM; at K-Ras G12V, below 100 nM; on K-Ras WT it was below 100 nM; in the assay with GP2D cells, below 500 nM; in the assay on A549 cells, below 5000 nM. In the assay on SW620 cells, the IC50 is below 5000 nM.

For `N#Cc1c(N)sc2c(F)ccc(-c3c(Cl)c4c5c(nc(OC[C@@]67CCCN6C[C@H](F)C7)nc5c3F)N(C3CC(NC(=O)C(F)F)C3)CCO4)c12` (stereo partly drawn) [Compound 612, N-(3-(9-(2-amino-3-cyano-7-fluorobenzo[b]thiophen-4-yl)-8-chloro-10-fluoro-2-(((2R,7aS)-2-fluorotetrahydro-1H-pyrrolizin-7a(5H)-yl)methoxy)-5,6-dihydro-4H-[1,4]oxazepino[5,6,7-de]quinazolin-4-yl)cyclobutyl)-2,2-difluoroacetamide], the IC50 on K-Ras G12D is below 100 nM; at K-Ras G12S it was below 100 nM; on K-Ras G12V, below 100 nM; on K-Ras WT, below 100 nM; in the assay on GP2D cells, below 500 nM; with A549 cells it was below 5000 nM. The IC50 with SW620 cells is below 5000 nM.

As for `CN(CCN1CCOc2c(Cl)c(-c3ccc(F)c4sc(N)c(C#N)c34)c(F)c3nc(OC[C@@]45CCCN4C[C@H](F)C5)nc1c23)C(=O)[C@@H]1N[C@H]1C1CC1` [Compound 613, (2R,3S)-N-(2-(9-(2-amino-3-cyano-7-fluorobenzo[b]thiophen-4-yl)-8-chloro-10-fluoro-2-(((2R,7aS)-2-fluorotetrahydro-1H-pyrrolizin-7a(5H)-yl)methoxy)-5,6-dihydro-4H-[1,4]oxazepino[5,6,7-de]quinazolin-4-yl)ethyl)-3-cyclopropyl-N-methylaziridine-2-carboxamide], the IC50 at K-Ras G12D was below 100 nM; at K-Ras G12S, below 100 nM; at K-Ras G12V it was below 100 nM; on K-Ras WT, below 100 nM; in the assay on GP2D cells it was below 500 nM; with A549 cells it was below 5000 nM. In the assay on SW620 cells, the IC50 is below 5000 nM.

As for `N#Cc1c(N)sc2c(F)ccc(-c3c(Cl)c4c5c(nc(OC[C@@]67CCCN6C[C@H](F)C7)nc5c3F)N([C@@H]3CCOC3)CCO4)c12` [Compound 617, 2-amino-4-(8-chloro-10-fluoro-2-(((2R,7aS)-2-fluorotetrahydro-1H-pyrrolizin-7a(5H)-yl)methoxy)-4-((R)-tetrahydrofuran-3-yl)-5,6-dihydro-4H-[1,4]oxazepino[5,6,7-de]quinazolin-9-yl)-7-fluorobenzo[b]thiophene-3-carbonitrile], the IC50 on K-Ras G12D was below 100 nM; on K-Ras G12S it was below 100 nM; at K-Ras G12V, below 100 nM; at K-Ras WT it was below 100 nM; in the assay on GP2D cells, below 500 nM; in the assay on A549 cells, below 5000 nM. Moreover, the IC50 in the assay with SW620 cells is below 5000 nM.

Turning to `C[C@H](Oc1nc2c3c(c(Cl)c(-c4ccc(F)c5sc(N)c(C#N)c45)c(F)c3n1)OCCN2[C@@H]1CCN(C=O)C1)[C@@H]1CCCN1C` [Compound 621, 2-amino-4-(8-chloro-10-fluoro-4-((R)-1-formylpyrrolidin-3-yl)-2-((S)-1-((S)-1-methylpyrrolidin-2-yl)ethoxy)-5,6-dihydro-4H-[1,4]oxazepino[5,6,7-de]quinazolin-9-yl)-7-fluorobenzo[b]thiophene-3-carbonitrile], the IC50 on K-Ras G12D was below 100 nM; at K-Ras G12S, below 100 nM; on K-Ras G12V, below 100 nM; at K-Ras WT, below 100 nM; with GP2D cells, below 500 nM; in the assay with A549 cells, below 5000 nM. Besides, in the assay on SW620 cells, the IC50 is below 5000 nM.

For the compound `N#Cc1c(N)sc2c(F)ccc(-c3c(Cl)c4c5c(nc(OC[C@@]67CCCN6C[C@H](F)C7)nc5c3F)N(CC(F)F)CC(C(F)(F)F)O4)c12` (stereo partly drawn) [Compound 1008, 2-amino-4-(8-chloro-4-(2,2-difluoroethyl)-10-fluoro-2-(((2R,7aS)-2-fluorotetrahydro-1H-pyrrolizin-7a(5H)-yl)methoxy)-6-(trifluoromethyl)-5,6-dihydro-4H-[1,4]oxazepino[5,6,7-de]quinazolin-9-yl)-7-fluorobenzo[b]thiophene-3-carbonitrile], the IC50 on K-Ras G12D was below 100 nM; at K-Ras G12V, below 100 nM; on K-Ras WT it was below 100 nM; in the assay on GP2D cells, below 500 nM; in the assay with A549 cells, below 5000 nM; in the assay on SW620 cells it was below 5000 nM.

As for `N#Cc1c(N)sc2c(F)ccc(-c3c(Cl)c4c5c(nc(OC[C@@]67CCCN6C[C@H](F)C7)nc5c3F)N(CC(F)F)C(CO)CO4)c12` (stereo partly drawn) [Compound 1037, 2-amino-4-(8-chloro-4-(2,2-difluoroethyl)-10-fluoro-2-(((2R,7aS)-2-fluorotetrahydro-1H-pyrrolizin-7a(5H)-yl)methoxy)-5-(hydroxymethyl)-5,6-dihydro-4H-[1,4]oxazepino[5,6,7-de]quinazolin-9-yl)-7-fluorobenzo[b]thiophene-3-carbonitrile], the IC50 in the assay on GP2D cells is below 500 nM; in the assay with A549 cells, below 5000 nM; in the assay with SW620 cells, below 5000 nM.

In the case of `N#Cc1c(N)sc2c(F)ccc(-c3c(Cl)c4c5c(nc(OC[C@@]67CCCN6C[C@H](F)C7)nc5c3F)N(CC(F)F)C(C(F)F)CO4)c12` (stereo partly drawn) [Compound 1105, 2-amino-4-(8-chloro-4-(2,2-difluoroethyl)-5-(difluoromethyl)-10-fluoro-2-(((2R,7aS)-2-fluorotetrahydro-1H-pyrrolizin-7a(5H)-yl)methoxy)-5,6-dihydro-4H-[1,4]oxazepino[5,6,7-de]quinazolin-9-yl)-7-fluorobenzo[b]thiophene-3-carbonitrile], the IC50 is below 100 nM on K-Ras G12D; below 100 nM on K-Ras G12S; below 100 nM on K-Ras WT; below 500 nM in the assay with GP2D cells; below 5000 nM in the assay with A549 cells; below 5000 nM in the assay on SW620 cells.

`N#Cc1c(N)sc2c(F)ccc(-c3c(Cl)c4c5c(nc(OC[C@@]67CCCN6C[C@H](F)C7)nc5c3F)N(C3CC3)CCCO4)c12` [Compound 1204, 2-amino-4-(9-chloro-4-cyclopropyl-11-fluoro-2-(((2R,7aS)-2-fluorotetrahydro-1H-pyrrolizin-7a(5H)-yl)methoxy)-4,5,6,7-tetrahydro-[1,5]oxazocino[4,3,2-de]quinazolin-10-yl)-7-fluorobenzo[b]thiophene-3-carbonitrile]: the IC50 in the assay with GP2D cells is below 500 nM; in the assay on A549 cells, below 5000 nM; with SW620 cells it was below 5000 nM.

As usually defined, the IC50 is the concentration that inhibits the measured activity by half.

The values are drawn from patent US12209102B2, “Heterocyclic compounds and uses thereof” (Kumquat Biosciences Inc., priority 2022, dated 2025).
